The record followed here is ChEMBL document CHEMBL1139128, “Structure-activity relationship analysis of a novel necroptosis inhibitor, Necrostatin-5” (Bioorg Med Chem Lett, 2007).

Molecules are shown by their SMILES. Calls of active or inactive are those of the source. How the calls were made is not given here.

The subject of the assay is Jurkat. Nature of the assay: Inhibition of TNF-alpha-induced necroptosis in FADD-deficient Jurkat T cells. Type of assay: functional, cell-based, Homo sapiens. Details: Activity: concentration or dose not given beside the values. To be noted: for EC50: Jurkat.

The compound `COc1ccc(-n2c(SCCO)nc3sc(C)c(C)c3c2=O)cc1` had an Activity of 78%. For the setting “Homo sapiens”, this compound had a half-maximal effective concentration (EC50) of 7.26 µM.
As to `N#CCSc1nc2sc3c(c2c(=O)n1-c1ccccc1)CCC3`, where the note is “Homo sapiens”, the outcome was inactive.
Still for that read-out and setting: to `C=CCSc1nc2sc3c(c2c(=O)n1-c1ccccc1)CCCC3` belongs “inactive”.
Regarding `CSc1nc2sc3c(c2c(=O)n1-c1ccc(C)c(C)c1)CCC3`, where the note is “Homo sapiens”, the outcome was inactive.
`CCc1c(C)sc2nc(SC)n(-c3ccc(OC)cc3)c(=O)c12`: the outcome (Homo sapiens) was inactive.
Turning to `CCc1sc2nc(SCC#N)n(-c3ccc(F)cc3)c(=O)c2c1C`, the outcome (Homo sapiens) was inactive.
The same measure, in the same setting: with `COc1ccc(-n2c(SCC#N)nc3sc(C(C)C)c(C)c3c2=O)cc1` the entry was “inactive”.
With `COc1ccc(-n2c(SCC(C)=O)nc3sc4c(c3c2=O)CCC4)cc1`, the result (Homo sapiens) was inactive.
With `N#CCSc1nc2sc3ccccc3c2c(=O)n1-c1ccc(F)cc1`, the 50% effective concentration (EC50) (Homo sapiens) was 3.06 µM.
For the compound `CCc1cc2c(=O)n(-c3ccc(OC)cc3)c(SCC#N)nc2s1`, the result (Homo sapiens) was inactive.
Same read-out and setting: to `N#CCSc1nc2sccc2c(=O)n1-c1ccccc1` belongs “inactive”.
`CSc1nc2sc3c(c2c(=O)n1-c1ccc(F)cc1)CCCC3` came in with an Activity of 61.2%. Where the note is “Homo sapiens”, this compound showed an EC50 of 1.57 µM.
`CCOc1ccc(-n2c(SCC#N)nc3sc4ccccc4c3c2=O)cc1`: the outcome (Homo sapiens) was inactive.
On the same count and under the same terms, with `C#CCSc1nc2sc3c(c2c(=O)n1-c1ccc(OC)cc1)CCCCC3` the entry was “inactive”.
In the case of `CN(C)c1ccc(-n2c(SCC#N)nc3sc4ccccc4c3c2=O)cc1`, the result (Homo sapiens) was inactive.
Same read-out and setting: to `CCCc1sc2nc(SC)n(-c3ccc(OC)cc3)c(=O)c2c1C` belongs “inactive”.
As to `C#CCSc1nc2scc(C)c2c(=O)n1-c1ccc(OC)cc1`, under “Homo sapiens”, the result was inactive.
With `CCc1sc2nc(SC)n(-c3ccc(OC)cc3)c(=O)c2c1C`, where the note is “Homo sapiens”, the result was inactive.
`COc1ccc(-n2c(SCCC#N)nc3sc(C)c(C)c3c2=O)cc1`: the result (Homo sapiens) was inactive.
For the compound `CSc1nc2sc(C)c(C)c2c(=O)n1-c1ccc(C)c(C)c1`, the outcome (Homo sapiens) was inactive.
Consider `C#CCSc1nc2sc(C)c(C)c2c(=O)n1-c1ccc2c(c1)OCO2`, for which, where the note is “Homo sapiens”, the result was inactive.
Same read-out and setting: with `COc1ccc(-n2c(SCc3ccc([N+](=O)[O-])cc3)nc3sc4c(c3c2=O)CCCC4)cc1` the entry was “inactive”; with `CCSc1nc2sc3c(c2c(=O)n1-c1ccc(OC)cc1)CCCCC3`, “inactive”.
As to `COc1ccc(-n2c(SC)nc3sc(C(C)C)c(C)c3c2=O)cc1`, the outcome (Homo sapiens) was inactive.
Compound `COc1ccc(-n2c(SCCO)nc3sc4c(c3c2=O)CCC4)cc1` returned an Activity of 100%. This compound returned an EC50 (Homo sapiens) of 7.14 µM.
Turning to `CCCCCSc1nc2sc3c(c2c(=O)n1-c1ccc(OC)cc1)CCCC3`, the result (Homo sapiens) was inactive.
Regarding `CCN1CCc2sc3nc(SCC#N)n(-c4ccc(OC)cc4)c(=O)c3c2C1`, where the note is “Homo sapiens”, the outcome was inactive.
For the compound `CCCCCCCCCCCCCCc1sc2nc(SC)n(-c3ccc(OC)cc3)c(=O)c2c1C`, the outcome (Homo sapiens) was inactive.
As for `COc1ccc(-n2c(SCC#N)nc3sc(C)cc3c2=O)cc1`, the outcome (Homo sapiens) was inactive.
Regarding `COc1ccc(-n2c(SC)nc3sc4c(c3c2=O)CC(C)CC4)cc1` (stereo not given), the result (Homo sapiens) was inactive.
With `CSc1nc2sc3c(c2c(=O)n1-c1ccc(Cl)cc1C)CCCC3`, the outcome (Homo sapiens) was inactive.
Same read-out and setting: with `COc1ccc(-n2c(SCc3ccccc3)nc3sc4c(c3c2=O)CCCC4)cc1` the entry was “inactive”; with `CCN1CCc2sc3nc(SC)n(-c4ccccc4)c(=O)c3c2C1`, “inactive”.
Where the note is “Homo sapiens”, `CSc1nc2sc3ccccc3c2c(=O)n1-c1ccc(F)cc1` came in with a half-maximal effective concentration (EC50) of 3.06 µM.
For the compound `COc1ccc(-n2c(SC)nc3sc4c(c3c2=O)CN(C(C)C)CC4)cc1`, under “Homo sapiens”, the outcome was inactive.
Consider `N#CCSc1nc2sc3c(c2c(=O)n1-c1ccc2c(c1)OCO2)CCC3`, for which the Activity stood at 100%. Moreover, the midpoint of the response (Homo sapiens), the EC50, lay at 1.18 µM.
